From US10766888B1, “HMOX1 inducers” (Mitobridge Inc., priority 2019, dated 2020)
pEC50: −log10 of the molar value. Values after ≈ are worked out from the molar mass of the structure shown.

Experiments:
[1] = test system: Human Heme Oxygenase-1 (HMOX-1); test: ELISA assay to measure human heme oxygenase-1 (HMOX-1) in HepG2 lysate; format: cell-based; conditions: human HMOX1 protein level in HepG2 lysate; * = average of 2 or more EC50 determinations; NA = Not Active; read-out: EC50
How it was run: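 HO-1 protein levels were read as fold change over DMSO-treated cells, with EC50 derived from these values. Quantitation used a chemiluminescent streptavidin-HRP capture ELISA, calibrated with an HO-1 standard series starting at 20 ng/ml, run at 20 °C. Samples were HepG2 lysates made with Triton X100/EDTA buffer and diluted 1:20.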

Kinetic solubility = format: physicochemical; conditions: Dulbecco's phosphate buffer saline (DPBS), aqueous buffer, kinetic from dmso stock, DPBS pH 7.4, 25° C., 200 μM test compound
Procedure: Example 144. Kinetic Solubility
10 μL of 10 mM DMSO stock solution were aliquotted to 490 μL of DMSO solution and separately 490 μL of Dulbecco's phosphate buffer saline, DPBS, pH 7.4 solution in 1.2 mL 96-well plates in duplicate. Final concentration was 200 μM of the test compound. Samples were incubated at 25° C. with shaking at 200 rpm for 16 h. Samples were centrifuged at 3500 rpm for 20 min at 25° C., and supernatant was submitted for HPLC analysis.
Kinetic solubility was measured using the following equation: […]

| SMILES | pEC50 [1] | solubility at 16 h (Kinetic solubility) |
| --- | --- | --- |
| Cn1c(Nc2nc3cc(F)c(C(F)(F)F)cc3o2)nc2cc(C(=O)NCCO)ccc21 [Example 108, 2-((5-fluoro-6-(trifluoromethyl)benzo[d]oxazol-2-yl)amino)-N-(2-hydroxyethyl)-1-methyl-1H-benzo[d]imidazole-5-carboxamide] | 5.82 | 0.3 µM (≈ 0.131 µg/mL) |
| COCCNC(=O)c1ccc2c(c1)nc(Nc1nc3cccnc3o1)n2C [Example 109, N-(2-methoxyethyl)-1-methyl-2-(oxazolo[5,4-b]pyridin-2-ylamino)-1H-benzo[d]imidazole-5-carboxamide] | 5.21 | 7.4 µM (≈ 2.71 µg/mL) |
| Cn1c(Nc2nc3ccc(C(F)(F)F)cc3o2)nc2cc(C(=O)NCC(O)CO)ccc21 (centres unmarked) [Example 39, N-(2,3-dihydroxypropyl)-1-methyl-2-((6-(trifluoromethyl)benzo[d]oxazol-2-yl)amino)-1H-benzo[d]imidazole-5-carboxamide] | 6.02 | 2.1 µM (≈ 0.944 µg/mL) |
| CC(C)C(N)C(=O)OCCOCCNC(=O)c1ccc2c(c1)nc(Nc1nc3ccccc3o1)n2C.Cl (racemic) [Example 30, 2-(2-(2-(benzo[d]oxazol-2-ylamino)-1-methyl-1H-benzo[d]imidazole-5-carboxamido)ethoxy)ethyl DL-valinate hydrochloride] | 5.46 | 3.2 µM |
| Cn1c(Nc2nc3ccc(C(F)(F)F)cc3o2)nc2cc(C(=O)NCCOCC(=O)O)ccc21 [Example 41, 2-(2-(1-methyl-2-((6-(trifluoromethyl)benzo[d]oxazol-2-yl)amino)-1H-benzo[d]imidazole-5-carboxamido)ethoxy)acetic acid] | 5.32 | 13.8 µM (≈ 6.59 µg/mL) |
| COCCNC(=O)c1ccc2c(c1)nc(Nc1nc3ccc(OC(F)(F)F)cc3o1)n2C [Example 45, N-(2-methoxyethyl)-1-methyl-2-((6-(trifluoromethoxy)benzo[d]oxazol-2-yl)amino)-1H-benzo[d]imidazole-5-carboxamide] | 6.19 | 0.2 µM (≈ 0.0899 µg/mL) |
| Cn1c(Nc2nc3ccc(C(C)(C)O)cc3o2)nc2cc(C(=O)NCCO)ccc21 [Example 133, N-(2-hydroxyethyl)-2-((6-(2-hydroxypropan-2-yl)benzo[d]oxazol-2-yl)amino)-1-methyl-1H-benzo[d]imidazole-5-carboxamide] | 5.28 | 9.2 µM (≈ 3.77 µg/mL) |
| COCCNC(=O)c1ccc2c(c1)nc(Nc1nc3ccc(C(C)C)cc3o1)n2C [Example 60, 2-((6-isopropylbenzo[d]oxazol-2-yl)amino)-N-(2-methoxyethyl)-1-methyl-1H-benzo[d]imidazole-5-carboxamide] | 6.15 | 0.9 µM (≈ 0.367 µg/mL) |
| Cn1c(Nc2nc3ccc(OC(F)(F)F)cc3o2)nc2cc(C(=O)NC(CO)(CO)CO)ccc21 [Example 47, N-(1,3-dihydroxy-2-(hydroxymethyl)propan-2-yl)-1-methyl-2-((6-(trifluoromethoxy)benzo[d]oxazol-2-yl)amino)-1H-benzo[d]imidazole-5-carboxamide] | 5.80 | < 2 µM |
| Cn1c(Nc2nc3ccccc3o2)nc2cc(C(=O)C(F)(F)F)ccc21 [Example 139, 1-(2-(benzo[d]oxazol-2-ylamino)-1-methyl-1H-benzo[d]imidazol-5-yl)-2,2,2-trifluoroethan-1-one] | 5.59 | < 2 µM |
| O=C(O)c1ccc2c(c1)nc(Nc1nc3ccc(OC(F)(F)F)cc3o1)n2C1CCOCC1 [Example 79, 1-(tetrahydro-2H-pyran-4-yl)-2-((6-(trifluoromethoxy)benzo[d]oxazol-2-yl)amino)-1H-benzo[d]imidazole-5-carboxylic acid] | 5.40 | 12.4 µM (≈ 5.73 µg/mL) |
| Cn1c(Nc2nc3cccnc3o2)nc2cc(C(=O)NCCO)ccc21 [Example 110, N-(2-hydroxyethyl)-1-methyl-2-(oxazolo[5,4-b]pyridin-2-ylamino)-1H-benzo[d]imidazole-5-carboxamide] | 5.12 | 18.9 µM (≈ 6.66 µg/mL) |
| COCCNC(=O)c1ccc2c(c1)nc(Nc1nc3ccc(C(F)(F)F)cc3o1)n2C [Example 32, N-(2-methoxyethyl)-1-methyl-2-((6-(trifluoromethyl)benzo[d]oxazol-2-yl)amino)-1H-benzo[d]imidazole-5-carboxamide] | 6.30 | 1.4 µM (≈ 0.607 µg/mL) |
| CC(C)c1ccc2nc(Nc3nc4cc(C(=O)NCCO)ccc4n3C)oc2c1 [Example 61, N-(2-hydroxyethyl)-2-((6-isopropylbenzo[d]oxazol-2-yl)amino)-1-methyl-1H-benzo[d]imidazole-5-carboxamide] | 5.82 | 1.2 µM (≈ 0.472 µg/mL) |
| Cn1c(Nc2nc3cc(C(F)(F)F)ccc3o2)nc2cc(C(=O)NCCOCCO)ccc21 [Example 43, N-(2-(2-hydroxyethoxy)ethyl)-1-methyl-2-((5-(trifluoromethyl)benzo[d]oxazol-2-yl)amino)-1H-benzo[d]imidazole-5-carboxamide] | 5.89 | 8 µM (≈ 3.71 µg/mL) |
| Cn1c(Nc2nc3ccc(C(F)(F)F)cc3o2)nc2cc(C(=O)NCCN3CCCC3)ccc21 [Example 36, 1-methyl-N-(2-(pyrrolidin-1-yl)ethyl)-2-((6-(trifluoromethyl)benzo[d]oxazol-2-yl)amino)-1H-benzo[d]imidazole-5-carboxamide] | 5.89 | 2.8 µM (≈ 1.32 µg/mL) |
| Cn1c(Nc2nc3ccc(OC(F)(F)F)cc3o2)nc2cc(C(=O)NC(CO)CO)ccc21 [Example 48, N-(1,3-dihydroxypropan-2-yl)-1-methyl-2-((6-(trifluoromethoxy)benzo[d]oxazol-2-yl)amino)-1H-benzo[d]imidazole-5-carboxamide] | 5.70 | 3.9 µM (≈ 1.82 µg/mL) |
| Cn1c(Nc2nc3ccc(OC(F)(F)F)cc3o2)nc2cc(C(=O)NCC3(O)COC3)ccc21 [Example 52, N-((3-hydroxyoxetan-3-yl)methyl)-1-methyl-2-((6-(trifluoromethoxy)benzo[d]oxazol-2-yl)amino)-1H-benzo[d]imidazole-5-carboxamide] | 6.00 | < 2 µM |
| COCCNC(=O)c1ccc2c(c1)nc(Nc1nc3ccc(OC(F)F)cc3o1)n2C [Example 63, 2-((6-(difluoromethoxy)benzo[d]oxazol-2-yl)amino)-N-(2-methoxyethyl)-1-methyl-1H-benzo[d]imidazole-5-carboxamide] | 5.89 | 0.8 µM (≈ 0.345 µg/mL) |

The remaining lines, values ahead:

| pEC50 [1] | solubility at 16 h (Kinetic solubility) | SMILES |
| --- | --- | --- |
| 6.04 | 0.4 µM (≈ 0.185 µg/mL) | COCCNC(=O)c1ccc2c(c1)nc(Nc1nc3ccc(OCC(F)(F)F)cc3o1)n2C [Example 99, N-(2-methoxyethyl)-1-methyl-2-((6-(2,2,2-trifluoroethoxy)benzo[d]oxazol-2-yl)amino)-1H-benzo[d]imidazole-5-carboxamide] |
| 5.47 | 14.1 µM (≈ 6.03 µg/mL) | Cn1c(Nc2nc3ccc(OCCO)cc3o2)nc2cc(C(=O)NOCCO)ccc21 [Example 129, N-(2-hydroxyethoxy)-2-((6-(2-hydroxyethoxy)benzo[d]oxazol-2-yl)amino)-1-methyl-1H-benzo[d]imidazole-5-carboxamide] |
| 6.30 | < 2 µM | COCCONC(=O)c1ccc2c(c1)nc(Nc1nc3ccc(OC(F)(F)F)cc3o1)n2C [Example 127, N-(2-methoxyethoxy)-1-methyl-2-((6-(trifluoromethoxy)benzo[d]oxazol-2-yl)amino)-1H-benzo[d]imidazole-5-carboxamide] |
| 5.89 | 5.3 µM (≈ 2.25 µg/mL) | COCCNC(=O)c1ccc2c(c1)nc(Nc1nc3ccc(OCCO)cc3o1)n2C [Example 102, 2-((6-(2-hydroxyethoxy)benzo[d]oxazol-2-yl)amino)-N-(2-methoxyethyl)-1-methyl-1H-benzo[d]imidazole-5-carboxamide] |
| 5.43 | 6.6 µM (≈ 3.01 µg/mL) | Cn1c(Nc2nc3ccc(OCCO)cc3o2)nc2cc(C(=O)NCCOCCO)ccc21 [Example 104, 2-((6-(2-hydroxyethoxy)benzo[d]oxazol-2-yl)amino)-N-(2-(2-hydroxyethoxy)ethyl)-1-methyl-1H-benzo[d]imidazole-5-carboxamide] |
| 5.92 | 5.3 µM (≈ 2.38 µg/mL) | Cn1c(Nc2nc3ccc(OCC(F)(F)F)cc3o2)nc2cc(C(=O)NCCO)ccc21 [Example 100, N-(2-hydroxyethyl)-1-methyl-2-((6-(2,2,2-trifluoroethoxy)benzo[d]oxazol-2-yl)amino)-1H-benzo[d]imidazole-5-carboxamide] |
| 6.13 | < 2 µM | Cn1c(Nc2nc3cc(F)c(C(F)(F)F)cc3o2)nc2cc(C(=O)NOCCO)ccc21 [Example 130, 2-((5-fluoro-6-(trifluoromethyl)benzo[d]oxazol-2-yl)amino)-N-(2-hydroxyethoxy)-1-methyl-1H-benzo[d]imidazole-5-carboxamide] |
| 5.74 | 2 µM (≈ 0.835 µg/mL) | Cn1c(Nc2nc3ccc(OC(F)F)cc3o2)nc2cc(C(=O)NCCO)ccc21 [Example 64, 2-((6-(difluoromethoxy)benzo[d]oxazol-2-yl)amino)-N-(2-hydroxyethyl)-1-methyl-1H-benzo[d]imidazole-5-carboxamide] |
| 6.52 | 3.5 µM (≈ 1.52 µg/mL) | Cn1c(Nc2nc3ccc(C(F)(F)F)cc3o2)nc2cc(C(=O)NOCCO)ccc21 [Example 125, N-(2-hydroxyethoxy)-1-methyl-2-((6-(trifluoromethyl)benzo[d]oxazol-2-yl)amino)-1H-benzo[d]imidazole-5-carboxamide] |
